How the values were obtained:
Tau = biological target: T1, Tau (Homo sapiens, UniProt P10636); assay: one-step kinetic SPR (KD […]); solid phase binding with biotin-dexamethasone ([…]); DARTS in Raw264.[…] lysate ([…])
T1 construct: gene MAPT; purified Tau protein

GPR97 = biological target: T2, GPR97 (Homo sapiens, UniProt Q86Y34); assay: HuProt human proteome microarray with biotin-labeled dexamethasone ([…]); assay type: binding
T2 construct: gene ADGRG3; full-length human protein with N-terminal glutathione S-transferase tag on microarray
T2 sequence (Q86Y34 21-549): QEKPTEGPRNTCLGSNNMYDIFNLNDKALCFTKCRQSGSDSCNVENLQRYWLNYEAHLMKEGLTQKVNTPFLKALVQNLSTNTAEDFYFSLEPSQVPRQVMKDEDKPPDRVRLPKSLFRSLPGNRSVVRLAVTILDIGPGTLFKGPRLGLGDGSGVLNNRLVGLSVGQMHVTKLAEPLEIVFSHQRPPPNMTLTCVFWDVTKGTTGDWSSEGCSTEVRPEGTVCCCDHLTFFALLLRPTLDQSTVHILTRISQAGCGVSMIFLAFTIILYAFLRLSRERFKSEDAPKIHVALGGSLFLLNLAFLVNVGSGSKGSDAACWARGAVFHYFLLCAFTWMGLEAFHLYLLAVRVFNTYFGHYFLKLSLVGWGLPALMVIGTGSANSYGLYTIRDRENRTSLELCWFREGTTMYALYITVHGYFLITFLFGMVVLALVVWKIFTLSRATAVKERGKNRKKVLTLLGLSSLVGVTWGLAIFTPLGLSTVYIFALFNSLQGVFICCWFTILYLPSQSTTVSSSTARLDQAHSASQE

T1 sequence (P10636 1-441 isoform P10636-8): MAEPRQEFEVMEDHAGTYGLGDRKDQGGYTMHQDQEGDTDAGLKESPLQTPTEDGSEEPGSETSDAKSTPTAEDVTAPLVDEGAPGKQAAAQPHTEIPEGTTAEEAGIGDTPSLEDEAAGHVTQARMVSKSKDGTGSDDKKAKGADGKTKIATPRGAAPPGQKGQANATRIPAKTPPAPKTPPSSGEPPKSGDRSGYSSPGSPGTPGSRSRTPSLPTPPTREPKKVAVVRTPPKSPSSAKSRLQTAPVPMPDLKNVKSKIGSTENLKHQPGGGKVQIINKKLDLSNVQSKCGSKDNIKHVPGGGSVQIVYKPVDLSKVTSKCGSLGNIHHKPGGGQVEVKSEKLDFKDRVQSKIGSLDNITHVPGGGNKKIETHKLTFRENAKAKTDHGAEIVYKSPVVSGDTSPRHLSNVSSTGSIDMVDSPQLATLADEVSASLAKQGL

## C[C@@H]1C[C@H]2[C@@H]3CCC4=CC(=O)C=C[C@]4(C)[C@@]3(F)[C@@H](O)C[C@]2(C)[C@@]1(O)C(=O)CO [dexamethasone]
Tau
  Kd: ~380 µM
GPR97
  HuProt human proteome microarray with biotin-labeled dexamethasone (0.2 and 400): dexamethasone bound to GR and GPR97, two known receptors of dexamethasone

— PMC11701132, “Tau is a receptor with low affinity for glucocorticoids and is required for glucocorticoid-induced bone loss” (Cell Research, 2025)
